# According to doi:10.1101/2025.07.16.665058v1 (biorxiv, 2025):
# Ends that are not written are not given here.
# Tests used:
# [1] = target: T1, rat ASIC3 (rASIC3) (Rattus norvegicus, UniProt O35240); assay: whole-cell patch clamp, HEK293, potentiation of pH5.5-evoked sustained current; format: cell-based; conditions: peptide applied in pH 7.4 resting solution, pH 5.5 pulse; positive modulator
# T1 sequence (O35240 1-533): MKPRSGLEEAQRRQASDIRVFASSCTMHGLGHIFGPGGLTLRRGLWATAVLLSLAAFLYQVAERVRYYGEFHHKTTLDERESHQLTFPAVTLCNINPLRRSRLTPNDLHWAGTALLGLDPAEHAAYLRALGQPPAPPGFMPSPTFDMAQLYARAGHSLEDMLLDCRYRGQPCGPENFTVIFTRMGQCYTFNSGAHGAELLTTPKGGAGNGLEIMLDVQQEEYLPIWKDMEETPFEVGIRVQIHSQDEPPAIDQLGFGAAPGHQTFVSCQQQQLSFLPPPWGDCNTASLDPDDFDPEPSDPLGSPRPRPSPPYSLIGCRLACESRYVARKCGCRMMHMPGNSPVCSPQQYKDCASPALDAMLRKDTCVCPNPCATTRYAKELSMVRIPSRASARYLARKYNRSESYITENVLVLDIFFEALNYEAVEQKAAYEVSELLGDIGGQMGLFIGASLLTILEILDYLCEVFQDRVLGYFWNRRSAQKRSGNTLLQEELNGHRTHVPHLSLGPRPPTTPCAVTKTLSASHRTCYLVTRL
# [2] = target: T1, rat ASIC3 (rASIC3); assay: whole-cell patch clamp, HEK293, pH5.5-evoked sustained current at […] s; format: cell-based; conditions: peptide in pH 7.4 resting solution, pH 5.5 pulse, -50 mV
Substance,EC50 [1] [µM],Mean fold increase (I/Ictrl) [2] [fold]
FRCCRF-NH2 (cysteine pairing not given here),4.73 ± 0.8,–
FRCRCF-NH2 (cysteine pairing not given here),4.41 ± 0.95,–
FRC̄C̄RFamide,–,24.22
FRC̄R̄C̄Famide,–,34.08
